Here are results for eleven molecules from ChEMBL document CHEMBL1201862, “PubChem BioAssay data set” (2004).

Calls of active or inactive are those of the source.

As usually defined, the IC50 is the concentration that gives 50% inhibition. Broadly, the AC50 is the concentration giving half of the maximal activity seen. The term CC50 denotes the concentration at which the toxic effect on the cells reaches its halfway point. As a reminder, the EC50 is the concentration at which the effect is half-maximal.

Assay [1] has as its target C-C chemokine receptor type 6 (Homo sapiens, UniProt P51684). Kind of assay: antagonism of CCR6 beta-arrestin recruitment – cell-based, luminescent beta-arrestin readout, dose response (AID 504728). The assay is classed as functional.
For another assay, the target named is Beta-galactosidase (Escherichia coli, UniProt Q8VNN2). Kind of assay: detection-enzyme interference by beta-gal modulators – biochemical, E. coli enzyme, set 3, artefact control for CCR6 antagonist project, dose response (AID 504712). The assay is classed as functional.
Assay [2] in a line: BJeH cell viability loss – BJeH cells, dry powder, counter-screen for Ras selective lethality project, dose response (AID 493054). The assay is classed as functional, cell-based. (In general: A counterscreen serves to expose hits that act by an unwanted route or on another target.)
For a further assay, the system named is HeLa. Kind of assay: Cytotoxicity counterscreen assay for transcriptional activators of heat shock protein 70 (Hsp70). [Related pubchem assays: 1203, 1252 ]. Type of assay: functional. Conditions: Homo sapiens.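 Note: cells exposed to compound for 16 hours before readout.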
Assay [3] deals with Acyl-homoserine lactone acylase PvdQ (Pseudomonas aeruginosa (strain LESB58), UniProt Q9I194). Kind of assay: PvdQ acylase enzyme activity blockers – biochemical, fluorescence, plate reader and imaging, cherry-picks, dose response (AID 493231).
The target of a further assay is X-box-binding protein 1 (Homo sapiens, UniProt P17861). The assay is classed as functional, Cricetulus griseus.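 Note: confirmatory dose-response counter-screen serving a CHOP assay.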
Assay [4] concerns the target Scavenger receptor class B member 1 (Mus musculus, UniProt Q61009). Kind of assay: mouse SR-BI DiI-HDL uptake blockers – ldlA[mSR-BI] cells, fluorescence, cherry pick, dose response (AID 493194).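 Note: cellular uptake of fluorescent DiI-labeled HDL measured as cell fluorescence.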 The assay is classed as functional, cell-based.
The target of assay [5] is T1, Polyadenylate-binding protein 1 (Homo sapiens, UniProt P11940). Kind of assay: PABP inhibition in translation initiation, SAR follow-up (AID 435018). The assay is classed as functional.
T1 sequence (P11940 whole entry): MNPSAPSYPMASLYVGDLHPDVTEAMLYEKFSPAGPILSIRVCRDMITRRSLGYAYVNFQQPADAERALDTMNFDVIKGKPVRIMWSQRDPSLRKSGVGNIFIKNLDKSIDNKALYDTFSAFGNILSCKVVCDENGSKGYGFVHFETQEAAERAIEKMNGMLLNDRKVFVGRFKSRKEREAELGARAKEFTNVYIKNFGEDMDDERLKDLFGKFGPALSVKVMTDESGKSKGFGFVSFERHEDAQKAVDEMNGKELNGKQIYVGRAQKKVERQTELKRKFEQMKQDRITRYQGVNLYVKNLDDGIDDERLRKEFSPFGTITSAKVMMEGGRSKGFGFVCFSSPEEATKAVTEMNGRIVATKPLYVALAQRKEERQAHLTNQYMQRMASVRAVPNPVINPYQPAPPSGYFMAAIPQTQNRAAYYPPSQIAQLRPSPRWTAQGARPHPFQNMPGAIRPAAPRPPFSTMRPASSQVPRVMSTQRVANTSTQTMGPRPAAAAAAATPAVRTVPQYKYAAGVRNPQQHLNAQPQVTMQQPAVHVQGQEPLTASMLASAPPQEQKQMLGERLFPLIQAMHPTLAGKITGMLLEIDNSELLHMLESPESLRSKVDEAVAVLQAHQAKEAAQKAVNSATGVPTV
Assay [6] concerns the target DNA dC->dU-editing enzyme APOBEC-3G (Homo sapiens, UniProt Q9HC16). The assay is classed as functional.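 Note: Dose-response counterscreen measuring inhibition of APOBEC3G DNA deaminase activity, run while confirming APOBEC3A inhibitors.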
Assay [7] deals with T2, Eukaryotic translation initiation factor 4H (Homo sapiens, UniProt Q15056). Briefly: eIF4H binding inhibition – biochemical, uHTS, fluorescence polarization, translation initiation inhibitor project, primary screen (AID 2012). A general note: In fluorescence polarisation assays a small probe gives low polarisation when free and higher when bound to something large.
Assay [8] concerns the target T2, Eukaryotic translation initiation factor 4H. Briefly: inhibitors of translation initiation factor eIF4H – SAR follow-up (AID 435011). The assay is classed as functional.
The target in assay [9] is T1, Polyadenylate-binding protein 1. Briefly: blockers of PABP interaction with poly(A) – biochemical, fluorescence polarization, […] (AID 2014).
The target of assay [10] is DNA dC->dU-editing enzyme APOBEC-3A (Homo sapiens, UniProt P31941). Kind of assay: Dose Response confirmation of small molecule APOBEC3A DNA Deaminase Inhibitors via a fluorescence-based single-stranded DNA deaminase assay. [Related pubchem assays (depositor defined):AID493011, AID493024]. The assay is classed as functional.
A further assay has as its target CAAX prenyl protease 2 (Homo sapiens, UniProt Q9Y256). Kind of assay: inhibition of Ras-converting CAAX protease Rce1 – biochemical, yeast membranes, quenched-peptide fluorescence, cherry-pick, dose response (AID 588849).
Another assay has as its target Trypsin (Sus scrofa, UniProt P00761). Kind of assay: trypsin protease activity blockade – biochemical, quenched peptide fluorescence, cherry-pick, selectivity assay for Rce1 protease inhibitor project, dose response (AID 488789).
For assay [11], the target named is Acylamino-acid-releasing enzyme (Homo sapiens, UniProt P13798). Kind of assay: endogenous PME-1 and serine hydrolase inhibition – cell lysate, mouse brain cytosol, FP-rhodamine, gel ABPP, selectivity assay for PME-1 inhibitor project, dose response, panel member APEH Assay Panel member description: Inhibition of N-acylaminoacyl-peptide hydrolase (APEH) (anti-target) (AID 2366).

For assay [12], the target named is T3, DNA repair protein RAD52 homolog (Homo sapiens, UniProt P43351).
T3 sequence (P43351 whole entry): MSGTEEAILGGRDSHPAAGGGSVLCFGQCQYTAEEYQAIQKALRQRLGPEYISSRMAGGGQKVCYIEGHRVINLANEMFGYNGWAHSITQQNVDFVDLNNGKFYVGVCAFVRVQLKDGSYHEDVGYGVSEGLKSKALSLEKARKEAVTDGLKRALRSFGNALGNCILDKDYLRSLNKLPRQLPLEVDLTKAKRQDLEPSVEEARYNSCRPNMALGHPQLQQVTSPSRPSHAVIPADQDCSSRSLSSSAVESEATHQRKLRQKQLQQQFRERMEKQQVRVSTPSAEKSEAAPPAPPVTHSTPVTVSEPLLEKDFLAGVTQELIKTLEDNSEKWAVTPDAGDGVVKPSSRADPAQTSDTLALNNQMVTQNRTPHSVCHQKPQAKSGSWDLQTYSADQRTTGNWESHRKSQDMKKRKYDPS
The assay is classed as functional, biochemical.

Assay [13] in a line: NIH3T3 cell viability loss – ATP luminescence, mouse fibroblasts, counter-screen, dose response (AID 2010).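 Note: cells exposed to compound for about 90 hours before reading.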 Type of assay: functional, cell-based.
Assay [14] deals with T4, Heat shock factor protein 1 (Mus musculus, UniProt P38532).
T4 sequence (P38532 whole entry): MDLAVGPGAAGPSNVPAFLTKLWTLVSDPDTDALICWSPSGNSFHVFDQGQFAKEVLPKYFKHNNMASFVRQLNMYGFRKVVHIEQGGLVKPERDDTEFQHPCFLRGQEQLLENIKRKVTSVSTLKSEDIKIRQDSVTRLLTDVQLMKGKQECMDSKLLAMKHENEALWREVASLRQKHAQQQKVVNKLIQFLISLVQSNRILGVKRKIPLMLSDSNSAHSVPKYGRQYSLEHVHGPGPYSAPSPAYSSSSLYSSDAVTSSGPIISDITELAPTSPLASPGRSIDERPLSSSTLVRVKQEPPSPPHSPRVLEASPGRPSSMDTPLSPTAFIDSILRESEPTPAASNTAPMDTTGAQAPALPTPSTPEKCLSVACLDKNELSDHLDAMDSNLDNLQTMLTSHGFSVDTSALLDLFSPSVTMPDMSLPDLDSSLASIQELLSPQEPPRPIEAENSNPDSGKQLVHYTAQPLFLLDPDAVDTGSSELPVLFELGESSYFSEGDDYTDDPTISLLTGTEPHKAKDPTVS
Briefly: enhancement of HSF1-driven luciferase signal – cell-based, NIH3T3, luminescence, dose retest, confirmation (AID 435004).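 Note: stress induced by proteasome inhibitor MG132 added 30 min after compound; luciferase reporter driven by HSF1 response element in NIH3T3 cells; actives raise luminescence as potentiators of the MG132 stress response.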 The assay is classed as functional.

The nature of assay [15]: Trypanosoma cruzi growth suppression in host cells – NIH3T3 host cells, beta-gal luminescence, confirmation (AID 2044).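 Note: intracellular parasites grown in NIH/3T3 mouse fibroblasts as host cells; luminescent beta-galactosidase reporter signal from transgenic T. cruzi replicating inside host cells; inhibitors lower the luminescence signal.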 Type of assay: functional, cell-based.
Assay [16] concerns the target T5, DNA repair and recombination protein RAD54-like (Homo sapiens, UniProt Q92698).
T5 sequence (Q92698 whole entry): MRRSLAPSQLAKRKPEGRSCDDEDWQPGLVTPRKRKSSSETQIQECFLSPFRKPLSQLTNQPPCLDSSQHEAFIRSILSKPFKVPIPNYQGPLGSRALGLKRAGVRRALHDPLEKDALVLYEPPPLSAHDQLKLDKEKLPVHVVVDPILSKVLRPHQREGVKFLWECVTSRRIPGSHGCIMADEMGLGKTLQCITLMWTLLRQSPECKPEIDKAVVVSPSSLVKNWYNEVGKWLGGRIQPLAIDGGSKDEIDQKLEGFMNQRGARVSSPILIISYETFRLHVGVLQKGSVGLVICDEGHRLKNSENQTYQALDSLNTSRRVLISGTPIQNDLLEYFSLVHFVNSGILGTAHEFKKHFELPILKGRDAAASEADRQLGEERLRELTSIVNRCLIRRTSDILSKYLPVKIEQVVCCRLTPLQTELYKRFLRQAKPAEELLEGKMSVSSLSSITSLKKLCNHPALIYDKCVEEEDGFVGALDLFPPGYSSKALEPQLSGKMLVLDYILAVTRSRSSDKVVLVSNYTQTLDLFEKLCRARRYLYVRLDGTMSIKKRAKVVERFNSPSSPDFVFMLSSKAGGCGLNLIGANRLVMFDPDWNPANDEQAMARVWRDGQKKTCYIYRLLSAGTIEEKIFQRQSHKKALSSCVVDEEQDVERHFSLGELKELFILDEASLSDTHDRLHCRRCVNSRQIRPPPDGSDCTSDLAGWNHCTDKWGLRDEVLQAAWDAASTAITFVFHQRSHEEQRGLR
Briefly: RAD54 Holliday junction migration blockers – biochemical, fluorescence, cherry-picked samples, dose series, confirmation (AID 651657). Type of assay: functional.

A short description of assay [17]: protection from phage-mediated lysis, alamar blue read-out – E. coli UTI89, K1F phage, bacterial capsule biogenesis inhibitors (AID 488966). The assay is classed as functional. In general terms: Alamar Blue is a resazurin reagent that responds to reducing activity.
The subject of a further assay is Vero. Kind of assay: cells. Type of assay: functional. Particulars: Chlorocebus sabaeus.
The nature of assay [18]: acridine orange displacement from DNA – biochemical, fluorescence polarization, cherry-pick, artefact control for RAD54 inhibitor project, dose response (AID 651673). The assay is classed as functional.
Assay [19] concerns the target FAD-linked sulfhydryl oxidase ALR (Homo sapiens, UniProt P55789). Briefly: ALR-catalysed DTT oxidation blockers – biochemical, H2O2 detection, luminescence, cherry-pick, dose response (AID 493248).
The target in assay [20] is Protein phosphatase methylesterase 1 (Homo sapiens, UniProt Q9Y570). Kind of assay: endogenous PME-1 and serine hydrolase inhibition – cell lysate, mouse brain cytosol, FP-rhodamine, gel ABPP, selectivity assay for PME-1 inhibitor project, dose response, panel member PME-1 Assay Panel member description: Inhibition of endogenously expressed PME-1 (AID 2366).
Sequence of Protein phosphatase methylesterase 1 (Q9Y570 whole entry): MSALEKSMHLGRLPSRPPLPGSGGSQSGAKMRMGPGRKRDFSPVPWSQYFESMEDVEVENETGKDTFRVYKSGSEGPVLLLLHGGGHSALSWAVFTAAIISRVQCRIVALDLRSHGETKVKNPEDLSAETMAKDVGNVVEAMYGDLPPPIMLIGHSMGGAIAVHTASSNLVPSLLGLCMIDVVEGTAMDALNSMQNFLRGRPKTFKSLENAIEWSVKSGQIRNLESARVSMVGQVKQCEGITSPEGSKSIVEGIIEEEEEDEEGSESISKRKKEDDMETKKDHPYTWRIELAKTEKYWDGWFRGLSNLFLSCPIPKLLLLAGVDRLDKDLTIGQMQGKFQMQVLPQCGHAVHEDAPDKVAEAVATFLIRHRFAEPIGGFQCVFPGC
The target in the next assay is SUMO E1/E2 (Homo sapiens, UniProt P63279+Q9UBE0+Q9UBT2). Kind of assay: SAR analysis of SUMOylation using HTRF in an in-Vitro dose response assay. [Related pubchem assays (depositor defined):AID2006, AID2011, AID2018, AID2069, AID2658]. Type of assay: functional.
The target in assay [21] is T6, Voltage-gated N-type calcium channel alpha-1B subunit/Amyloid beta A4 precursor protein-binding family A member 1 (Homo sapiens, UniProt Q00975+Q02410). Kind of assay: disruptors of Mint-PDZ/N-type channel peptide interaction – biochemical, HTRF, set 2, SAR follow-up (AID 434980). Type of assay: functional.
T6 sequence (Q00975 whole entry): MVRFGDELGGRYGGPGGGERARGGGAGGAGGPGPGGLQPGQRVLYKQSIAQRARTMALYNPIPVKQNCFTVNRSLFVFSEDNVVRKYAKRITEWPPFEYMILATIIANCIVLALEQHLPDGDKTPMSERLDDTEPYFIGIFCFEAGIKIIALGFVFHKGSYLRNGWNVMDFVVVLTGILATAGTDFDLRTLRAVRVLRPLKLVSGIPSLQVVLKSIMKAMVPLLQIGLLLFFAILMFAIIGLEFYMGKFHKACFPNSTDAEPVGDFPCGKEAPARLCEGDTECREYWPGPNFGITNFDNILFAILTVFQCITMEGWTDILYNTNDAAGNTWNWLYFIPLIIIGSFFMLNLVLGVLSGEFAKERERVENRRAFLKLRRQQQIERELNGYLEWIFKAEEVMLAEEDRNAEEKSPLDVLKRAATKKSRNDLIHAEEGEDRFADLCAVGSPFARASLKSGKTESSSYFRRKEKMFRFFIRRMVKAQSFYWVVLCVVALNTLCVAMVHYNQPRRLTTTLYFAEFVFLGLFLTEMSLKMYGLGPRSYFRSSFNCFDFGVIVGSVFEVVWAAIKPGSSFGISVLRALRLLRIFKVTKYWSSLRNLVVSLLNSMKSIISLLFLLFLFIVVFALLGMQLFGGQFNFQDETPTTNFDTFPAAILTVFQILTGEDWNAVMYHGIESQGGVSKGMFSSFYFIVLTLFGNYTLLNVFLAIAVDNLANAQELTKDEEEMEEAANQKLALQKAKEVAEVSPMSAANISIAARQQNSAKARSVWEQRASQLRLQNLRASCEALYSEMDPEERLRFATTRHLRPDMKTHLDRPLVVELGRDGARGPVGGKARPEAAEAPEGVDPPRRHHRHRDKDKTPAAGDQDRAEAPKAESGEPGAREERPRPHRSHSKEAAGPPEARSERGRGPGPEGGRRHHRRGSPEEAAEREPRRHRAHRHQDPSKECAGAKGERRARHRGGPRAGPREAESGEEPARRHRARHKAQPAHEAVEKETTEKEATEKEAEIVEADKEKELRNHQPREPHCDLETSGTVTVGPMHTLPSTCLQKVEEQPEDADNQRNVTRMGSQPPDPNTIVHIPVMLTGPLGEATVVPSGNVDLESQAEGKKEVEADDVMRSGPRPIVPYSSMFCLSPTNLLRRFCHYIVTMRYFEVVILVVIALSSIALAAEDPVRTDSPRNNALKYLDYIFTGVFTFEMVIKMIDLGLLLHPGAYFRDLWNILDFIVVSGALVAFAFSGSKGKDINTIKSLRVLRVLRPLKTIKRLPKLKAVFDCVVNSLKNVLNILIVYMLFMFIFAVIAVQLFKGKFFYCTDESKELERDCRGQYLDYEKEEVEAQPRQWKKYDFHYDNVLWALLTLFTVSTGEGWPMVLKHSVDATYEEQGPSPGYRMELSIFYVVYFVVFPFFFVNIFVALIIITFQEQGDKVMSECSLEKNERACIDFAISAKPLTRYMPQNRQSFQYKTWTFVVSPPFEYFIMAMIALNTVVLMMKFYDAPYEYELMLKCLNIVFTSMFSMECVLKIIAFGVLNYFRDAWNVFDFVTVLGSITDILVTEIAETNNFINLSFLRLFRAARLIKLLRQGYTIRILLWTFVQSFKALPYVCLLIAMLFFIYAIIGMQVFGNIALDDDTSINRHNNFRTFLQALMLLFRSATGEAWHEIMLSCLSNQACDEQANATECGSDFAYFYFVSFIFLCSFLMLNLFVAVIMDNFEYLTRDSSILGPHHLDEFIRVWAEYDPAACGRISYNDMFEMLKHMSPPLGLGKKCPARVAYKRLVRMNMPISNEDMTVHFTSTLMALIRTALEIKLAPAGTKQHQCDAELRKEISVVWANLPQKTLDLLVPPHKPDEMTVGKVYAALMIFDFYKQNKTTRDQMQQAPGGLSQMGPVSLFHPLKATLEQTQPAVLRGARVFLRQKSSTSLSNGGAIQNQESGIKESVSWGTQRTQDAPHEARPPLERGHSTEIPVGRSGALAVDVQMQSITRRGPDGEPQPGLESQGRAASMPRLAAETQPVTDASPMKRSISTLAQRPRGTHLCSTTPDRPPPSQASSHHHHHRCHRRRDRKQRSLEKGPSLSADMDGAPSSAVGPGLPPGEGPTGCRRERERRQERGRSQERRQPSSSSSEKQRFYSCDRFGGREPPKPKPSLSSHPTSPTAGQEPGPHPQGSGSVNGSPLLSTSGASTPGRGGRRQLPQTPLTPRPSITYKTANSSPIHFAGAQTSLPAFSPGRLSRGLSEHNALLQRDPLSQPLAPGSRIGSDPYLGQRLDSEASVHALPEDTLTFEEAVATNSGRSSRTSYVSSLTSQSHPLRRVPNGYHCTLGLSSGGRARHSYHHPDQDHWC
T6 sequence (Q02410 whole entry): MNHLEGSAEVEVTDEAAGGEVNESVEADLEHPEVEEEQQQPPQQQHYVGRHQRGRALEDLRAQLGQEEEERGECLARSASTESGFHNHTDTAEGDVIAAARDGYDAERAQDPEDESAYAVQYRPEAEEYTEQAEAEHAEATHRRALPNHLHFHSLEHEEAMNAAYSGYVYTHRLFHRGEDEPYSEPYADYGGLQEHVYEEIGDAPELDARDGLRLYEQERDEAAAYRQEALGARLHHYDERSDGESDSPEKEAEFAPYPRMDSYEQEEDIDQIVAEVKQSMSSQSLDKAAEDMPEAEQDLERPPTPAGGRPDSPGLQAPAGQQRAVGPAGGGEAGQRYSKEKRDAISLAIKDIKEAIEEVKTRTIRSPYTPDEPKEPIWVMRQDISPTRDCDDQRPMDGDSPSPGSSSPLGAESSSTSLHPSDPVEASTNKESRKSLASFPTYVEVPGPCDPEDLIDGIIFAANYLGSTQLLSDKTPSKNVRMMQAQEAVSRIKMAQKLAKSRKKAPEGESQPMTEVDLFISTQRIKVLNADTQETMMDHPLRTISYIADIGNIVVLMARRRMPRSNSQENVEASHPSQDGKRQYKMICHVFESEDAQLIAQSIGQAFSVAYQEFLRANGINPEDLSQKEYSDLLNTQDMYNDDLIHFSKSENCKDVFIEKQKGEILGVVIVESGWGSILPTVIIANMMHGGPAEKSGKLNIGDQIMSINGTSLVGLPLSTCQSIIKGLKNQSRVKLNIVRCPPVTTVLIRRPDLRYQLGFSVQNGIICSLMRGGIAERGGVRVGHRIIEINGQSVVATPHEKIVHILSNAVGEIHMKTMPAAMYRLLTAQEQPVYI
In assay [22] the target is T6, Voltage-gated N-type calcium channel alpha-1B subunit/Amyloid beta A4 precursor protein-binding family A member 1. Briefly: disruptors of Mint-PDZ/N-type channel peptide interaction – biochemical, HTRF, SAR follow-up (AID 2489). Type of assay: functional.

Sequence of FAD-linked sulfhydryl oxidase ALR (P55789 whole entry): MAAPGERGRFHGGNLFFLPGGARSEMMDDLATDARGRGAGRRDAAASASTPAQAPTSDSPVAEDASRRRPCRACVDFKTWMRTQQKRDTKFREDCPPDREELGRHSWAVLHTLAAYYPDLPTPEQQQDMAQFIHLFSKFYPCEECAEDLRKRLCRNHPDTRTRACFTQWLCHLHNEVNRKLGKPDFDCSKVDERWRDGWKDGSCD
Sequence of C-C chemokine receptor type 6 (P51684 whole entry): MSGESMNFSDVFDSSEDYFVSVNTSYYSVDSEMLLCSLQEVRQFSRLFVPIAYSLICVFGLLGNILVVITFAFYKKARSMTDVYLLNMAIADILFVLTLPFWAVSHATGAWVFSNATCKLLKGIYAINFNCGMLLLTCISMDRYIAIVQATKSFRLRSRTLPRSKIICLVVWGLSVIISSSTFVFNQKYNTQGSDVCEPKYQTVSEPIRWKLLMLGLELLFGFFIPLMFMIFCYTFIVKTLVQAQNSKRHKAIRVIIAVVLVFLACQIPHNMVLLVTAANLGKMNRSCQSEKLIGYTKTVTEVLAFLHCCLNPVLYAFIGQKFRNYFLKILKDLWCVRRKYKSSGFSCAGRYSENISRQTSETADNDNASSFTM

As for `COC(=O)N/N=C/c1cc(N=Nc2ccccc2Cl)ccc1O`, the IC50 (in assay [1]; on Beta-galactosidase) was > 66.6 µM (inactive) each time.

Turning to `COc1ccc(N(C(=O)CSc2ncccn2)C(C(=O)NCCc2ccccc2)c2cccs2)cc1Cl` (centres undefined), in [2], the AC50 is > 381 µM (inactive).

As for `CCOC(=O)C1CCN(c2ccc([N+](=O)[O-])cc2)CC1`, the CC50 in the assay on HeLa is reported as > 33 µM (not active). Besides, the AC50 in assay [3] is 40.5 µM (active).

As to `O=C(CNc1cccc(C(F)(F)F)c1)N/N=C/c1cccc(Br)c1`, on X-box-binding protein 1, the “Absolute IC50 (XBP1)” value was found to be 10 µM.

As to `COc1cc(NC(=O)c2ccco2)c(OC)cc1NC(=O)Nc1ccc(Cl)cc1`, the AC50 in assay [4] is 6.53 µM (active).

Take `Cc1ccc(NC(=O)C2CCN(C(=O)c3cccs3)CC2)c(C)c1`: the IC50 in assay [5] was 4.95 µM (active); in assay [6], 6.56 µM (active); in [7], > 100 µM (inactive); in assay [8], 47.6 µM (active); in assay [9] it was 6.51 µM (active); in assay [10] it was 4.37 µM (active).

With `CCOP(=O)(c1ccccc1)c1nc(-c2ccccc2Cl)oc1N1CCCCC1` (centres undefined), the AC50 was 5.21 µM (active) on CAAX prenyl protease 2 and 4.67 µM (active) at Trypsin.

Turning to `CS(=O)(=O)/C(C#N)=C/c1cccn1S(=O)(=O)c1ccccc1`, the IC50 in assay [11] is 20 µM (inactive).

On to `CN1CCN(c2ccc(Nc3ccnc4cc(Cl)ccc34)cc2)CC1`, for which the AC50 in assay [12] is 2.47 µM (active); in assay [16], 6.94 µM (active); in [18], 56.1 µM (active); in assay [19], 5.43 µM (active). The figures for the EC50 in assay [13], in assay [14] and in assay [15] were 10.4 µM (active), > 260 µM (inactive) and 1.39 µM (active), respectively. In addition, the IC50 in assay [17] was > 300 µM (active). Besides, the CC50 with Vero was 17.1 µM (active).

Consider `CS(=O)(=O)/C(C#N)=C/c1cccn1S(=O)(=O)c1ccc([N+](=O)[O-])cc1[N+](=O)[O-]`, for which the IC50 in [20] was > 20 µM (inactive).

Consider `COC(=O)c1ccc(CNC(=O)COC(=O)c2cc(-c3ccco3)nc3ccccc23)cc1`, for which the IC50 on SUMO E1/E2 was 2.23 µM (active); in assay [21], 6.74 µM (active); in assay [22] it was 19.2 µM (active).
